The subject of this assay is human peripheral blood mononuclear cells. The assay is described as follows: Inhibition of LPS-stimulated TNFα release from human peripheral blood mononuclear cells (TNFα screen). The class given is cell-based. The following applies: LPS-stimulated human PBMC, 18 hours incubation, TNFα in supernatant by ELISA. The procedure: Venous blood Is collected from healthy volunteers and the mononuclear cells purified by centrifugation through Histopaque (ficoll) cushions. TNFα production from these cells is stimulated by addition of lipopolysaccharide. After 18 hours incubation in the presence of LPS, the cell supernatant is removed and the concentration of TNFα in the supernatant determined by ELISA. Addition of PDE4 inhibitors reduces the amount of TNFα produced. An IC50 is determined which is equal to the concentration of compound that gives 50% inhibition of TNFα production as compared to the LPS stimulated control wells.

pIC50: −log10 of the molar value.

As usually defined, the pIC50 is the IC50 on a negative log10 scale, so that one unit is a factor of ten. In turn, `COC(=O)CCC(=O)NC1CCC(NC(=O)c2cc(F)cnc2Oc2ccc(F)cc2)CC1` (stereo not drawn) [Example 110, Syn-N-(4-{[5-fluoro-2-(4-fluoro-phenoxy)-pyridine-3-carbonyl]-amino}-cyclo-hexyl)-succinamic acid methyl ester] had a pIC50 of 7.85.

The record behind these values is US6949573B2, “Nicotinamide derivatives useful as PDE4 inhibitors” (Pfizer Inc, priority 2002, dated 2005).
